Calls of active or inactive are those of the source.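 How the source made its calls: active means maximal inhibition of the USP30 enzyme reaching 30% or more across the dose series; inactive means the rest.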

The experiment has as its target Ubiquitin carboxyl-terminal hydrolase 30 (Homo sapiens) (UniProt Q70CQ3). Kind of experiment: ubiquitin-specific protease 30 DUB inhibitors, concentration-effect, biochemical, validation of primary actives (AID 1645865). The note with it: purified USP30, Ub-rhodamine cleavage, fluorescence, 2 h.

Chain of Ubiquitin carboxyl-terminal hydrolase 30 (Homo sapiens) (Q70CQ3 whole entry, looked up): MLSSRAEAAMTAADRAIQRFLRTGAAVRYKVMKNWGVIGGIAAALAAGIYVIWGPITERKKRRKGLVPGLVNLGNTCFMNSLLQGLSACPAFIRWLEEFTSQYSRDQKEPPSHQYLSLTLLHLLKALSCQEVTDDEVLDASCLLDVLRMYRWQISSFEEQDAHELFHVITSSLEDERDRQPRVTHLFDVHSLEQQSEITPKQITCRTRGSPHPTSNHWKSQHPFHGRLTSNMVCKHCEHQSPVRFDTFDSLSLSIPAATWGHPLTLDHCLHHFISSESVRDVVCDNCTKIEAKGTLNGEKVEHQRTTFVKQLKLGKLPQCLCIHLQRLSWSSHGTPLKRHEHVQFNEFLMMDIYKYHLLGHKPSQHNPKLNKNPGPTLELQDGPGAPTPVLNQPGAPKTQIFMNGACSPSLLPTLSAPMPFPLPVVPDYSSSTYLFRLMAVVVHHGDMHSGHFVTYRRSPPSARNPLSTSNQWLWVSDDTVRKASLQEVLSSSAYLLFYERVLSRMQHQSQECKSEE

With `Cc1c(-c2nsc(NC(=O)c3ccc(Cl)cc3)n2)nnn1-c1ccccc1F`, the IC50 is 0.488 µM. Consider `Cc1ccnc(NC(=O)c2ccn(COc3ccc(Cl)cc3)n2)c1`, for which the IC50 was 22.8 µM. Take `CC1=C(C)C(N(c2ccccc2)c2ccccc2)N(CCC(C)C)C1=O` (configuration not stated): the IC50 was 36.1 µM.

Take `O=C(NC(Cc1ccccc1)c1nc2ccccc2[nH]1)C1CC1` (configuration not stated): the IC50 is > 50 µM (inactive). Regarding `Cc1noc(-c2cccn(Cc3cccc(C(F)(F)F)c3)c2=O)n1`, the IC50 was > 50 µM (inactive). `Cc1nc(Nc2c3ccccc3nc3ccccc23)sc1C`: the IC50 is > 50 µM (inactive).

In the case of `O=C(Nc1cc(F)c2nc(N3CCCC3)ccc2c1)c1ccco1`, the IC50 is > 50 µM (inactive). The value for `Nc1nc(OCc2ccccc2)c2[nH]c(/C=C/c3cccs3)nc2n1` was 35.6 µM. To `COc1ccc(C2/C(=C(\O)c3ccccc3)C(=O)C(=O)N2c2nc3ccc(F)cc3s2)cc1` (configuration not stated) belongs 43.1 µM; to `CC(=O)c1cccc(NC(=O)c2ccc(CN(c3ccc(C)c(C)c3)S(C)(=O)=O)cc2)c1`, > 50 µM (inactive). As to `Nc1c(-c2ccc(Cl)cc2)cnc2nc(Sc3ncc(C(F)(F)F)cc3Cl)nn12`, the IC50 was > 50 µM (inactive).

Turning to `Cc1ccc(Nc2nc(NCCc3ccccc3)nc3c2cnn3C)cc1`, the IC50 is 29.2 µM. As for `CSc1ncccc1C(=O)NC1(O)C(=O)c2ccccc2C1=O`, the IC50 is 29.5 µM. With `NC(=O)C1(N2CCCCC2)CCN(C(=O)c2[nH]nc3c2CCc2ccccc2-3)CC1`, the IC50 is > 50 µM (inactive). In the case of `Cc1cc(=O)n2c3c(c4c(cc13)c(CO)cc(=O)n4C)OC2`, the IC50 was > 5 µM (inactive). To `CCOc1ccccc1C(=O)NCC(=O)OC(C(=O)c1c[nH]c2ccccc12)c1ccccc1` (configuration not stated) belongs > 50 µM (inactive). Regarding `COc1cccc2c1OCC(C(=O)NCc1ccc(F)cc1)=C2`, the IC50 is > 50 µM (inactive). On to `COC(=O)c1cc2c(ccn2C)n1CC(=O)NC1CCCC1`, for which the IC50 was > 50 µM (inactive). As for `CCC(C)c1ccc(O[C@@H]2O[C@@H]3COC(c4ccccc4)O[C@H]3[C@H](O)[C@H]2NC(C)=O)cc1` (some centres not stated), the IC50 was 18.5 µM.

`O=C(NCc1cccc(NC(=O)C2CC2)c1)Nc1cccc2ccccc12`: the IC50 was 21.7 µM.

As for `CCN1CCN(C(=O)CCCN(c2ccccc2)S(C)(=O)=O)CC1`, the IC50 is > 50 µM (inactive). With `COc1cccc(NC(=O)Nc2ccc(CCc3nc4ccccc4[nH]3)cc2)c1`, the IC50 was 28.2 µM. The value for `COc1cc(Cl)ccc1Oc1ncnc2sc(C)c(C)c12` was > 50 µM (inactive); that for `COc1cc(OC)c2c(c1)C(=O)C1=C(COC(C)(O)C1)C2=O` (configuration not stated) was > 50 µM (inactive). To `COc1ccc(-c2cc3nc([C@H](C)NC(=O)Cc4ccccc4C)nn3cn2)cc1` belongs 1.9 µM; to `COc1ccc(NC(=O)Cn2cc(C(=O)c3ccc(F)cc3)c(=O)c3cc(C)ccc32)cc1`, 20.7 µM; to `COCCCn1c(C(=O)Nc2ccccc2OC)cc2c(=O)n3ccccc3nc21`, > 5 µM (inactive). As to `O=C(NCc1ccccc1Cl)c1ccc(-c2nnc(-c3ccccc3)o2)cc1`, the IC50 was 1.52 µM. For the molecule `Cc1c(C)n(-c2ccccc2)c2ncn(CC(=O)N(C)Cc3ccccc3)c(=O)c12`, the IC50 was > 50 µM (inactive).

Turning to `COC(=O)c1ccc(C(=O)Nc2cc3ccccc3cc2NC(=O)c2ccc(C(=O)OC)cc2)cc1`, the IC50 was 0.853 µM. Take `Fc1cc(F)c2[nH]cc(-c3nnnn3-c3ccc4ccccc4c3)c2c1`: the IC50 is 7.66 µM. As for `Cn1c(-c2nnc(SCC(=O)Nc3ccccc3F)o2)cc2ccccc21`, the IC50 is 14 µM.

With `CCN(Cc1ccccc1)S(=O)(=O)c1ccc(C(=O)Nc2ccc3c(c2)OCCO3)cc1`, the IC50 is > 50 µM (inactive).

In the case of `COc1ccc(NC(=O)CSc2oc(-c3ccc(C)cc3)nc2S(=O)(=O)c2ccc(Br)cc2)c(OC)c1`, the IC50 is > 50 µM (inactive). Take `Fc1ccc(Nc2nc(Nc3cccc(F)c3)nc3nccnc23)cc1`: the IC50 is > 50 µM (inactive). As to `CCc1ccc2[nH]c3c(c(=O)c2c1)CN(CC(=O)NCc1ccc2c(c1)OCO2)CC3`, the IC50 is 35.5 µM. To `CC(C)c1ccc(/C=C/C(=O)N2CCc3ccccc3C2)cc1` belongs 21.7 µM. Regarding `CC(C)C1Cc2c(sc3nc(SCC(=O)Nc4cccc5ccccc45)nc(N)c23)CO1` (configuration not stated), the IC50 was > 50 µM (inactive).

As to `COc1ccc(-c2cc(-c3ccc(F)cc3)[nH]c(=O)c2C#N)cc1`, the IC50 is 22.1 µM. The value for `Cc1nc2c3ccccc3nc(NCc3ccc4c(c3)OCO4)n2n1` was 32.9 µM; that for `CC(C)(C)c1ccc(C(=O)Nc2ccc(Oc3cccnc3)nc2)cc1` was > 50 µM (inactive); that for `O=C(NCCc1ccco1)c1ccc(N2CCOc3ccccc32)s1` was 27.4 µM. Consider `O=C(Cc1noc2ccccc12)NCC(=O)Nc1ccc(Cl)cc1`, for which the IC50 is 21.6 µM. In the case of `C/C=C\C1=CC(=O)[C@]23C[C@H]2[C@]2(C)CO[C@@]1(O)[C@@]3(O)O2`, the IC50 was > 50 µM (inactive). Consider `O=C(O)c1ccccc1C(=O)Nc1ccc(SC(C(=O)Nc2ccccc2)c2ccccc2)cc1` (configuration not stated), for which the IC50 was > 50 µM (inactive).

For `O=[N+]([O-])c1cccc(CSc2nnc(/C=C/c3ccccc3)o2)c1`, the IC50 is > 50 µM (inactive). As to `CCn1cnc2ccc(C(=O)NC3CC3)cc2c1=O`, the IC50 is > 50 µM (inactive). Consider `CN1C(=O)[C@@]23C[C@]4([C@@]56C[C@]78SS[C@](CO)(C(=O)N7[C@@H]5Nc5ccccc56)N(C)C8=O)c5ccccc5N[C@@H]4N2C(=O)[C@]1(CO)SS3`, for which the IC50 was 0.266 µM. `CN1C(=O)COc2cc(-c3noc(C(=O)NC4CCCCCC4)n3)ccc21`: the IC50 was 24.7 µM.

For the molecule `Cc1ccc(-c2noc(-c3nnc(SCC(=O)NC4CCCC4)n3C)n2)cc1`, the IC50 was 2.22 µM.

Regarding `COc1ccc(Cl)cc1NC(=O)Cn1c(=O)cc(C)c2c(C)nn(-c3ccccc3)c21`, the IC50 is 1.99 µM. Turning to `COc1ccc(CCNC(=O)CCn2c(=O)c3ccccc3n(Cc3ccc(C)cc3)c2=O)cc1OC`, the IC50 was 25.4 µM.

On to `CN(Cc1ccccc1)S(=O)(=O)c1ccc2[nH]cc(C(=O)NCc3cccs3)c(=O)c2c1`, for which the IC50 is 0.38 µM.

Consider `O=C(COC(=O)c1ccc(CN2CCCC2=O)cc1)c1ccc2c(c1)OCCO2`, for which the IC50 is > 50 µM (inactive).

As for `Cc1ccc(-c2nc(N3CCCC(O)C3)ncc2-c2cnccn2)s1` (configuration not stated), the IC50 was > 50 µM (inactive). Turning to `Cc1nc2cccnc2n1C1CCN(C(=O)c2cc3cc(Cl)ccc3[nH]2)C1` (configuration not stated), the IC50 is > 50 µM (inactive).

`Cc1ccc(N=Cc2sc(O)c3ccccc23)c(C)c1`: the IC50 was > 50 µM (inactive).

As for `O=C(c1cccnc1)N1CCC2(CC1)CC1(CO2)Nc2ccccc2-n2cccc21` (configuration not stated), the IC50 was > 50 µM (inactive). Turning to `CO[C@H]1CC[C@H](O)c2c1oc1c3c4c(c(O)c1c2=O)-c1c(cc2c(Cl)c(C)n(N)c(=O)c2c1O)C[C@@H]4OCO3`, the IC50 was 47.3 µM. As for `CO/C=C/C(=O)c1cc2cnc3c(=N)cc(NC(C)=O)c([nH]1)c23`, the IC50 was > 50 µM (inactive). With `COc1ccc(-c2nc(-c3nnn(Cc4ccc(F)cc4)c3C)no2)c(OC)c1`, the IC50 was 8.97 µM. For the molecule `CC1CCN(S(=O)(=O)c2ccc3[nH]cc(C(=O)NCc4ccco4)c(=O)c3c2)CC1`, the IC50 is > 50 µM (inactive). The value for `O=C(Nc1ncc2c(n1)-c1ccccc1CC2)C1CC1` was 17.5 µM. In the case of `Cc1ccc(C2c3c(-c4ccccc4O)n[nH]c3C(=O)N2Cc2ccco2)cc1` (configuration not stated), the IC50 was 21.3 µM. Turning to `COc1ccccc1OCCNC(=O)c1cc(C2CC2)nc2c1cnn2C(C)C`, the IC50 was > 50 µM (inactive). As for `COc1ccc(NC(=O)Cn2c(CS(=O)(=O)c3ccc(C)cc3)nc3ccccc32)cc1`, the IC50 is 7.12 µM. As for `COc1ccc(NC(=O)C2Oc3ccc(C)cc3NC2=O)cc1Cl` (configuration not stated), the IC50 is 19.5 µM. The value for `Cc1c(-c2nc(-c3ccccc3Cl)no2)nnn1-c1cccc(F)c1` was 4.07 µM. The value for `COc1cc(O)c2c(c1)C1=CC(=O)C(O)=C[C@]1(C)OC2=O` was 34.6 µM; that for `COc1ccccc1CNC(=O)CCCn1c(=O)c2ccccc2n(CC(=O)N2CCN(c3ccccc3)CC2)c1=O` was 34.8 µM. For the molecule `CCOC(=O)[C@@H]1[C@@H](c2ccccc2)CN2CCN(C(=O)c3cnccn3)C[C@H]12`, the IC50 was > 50 µM (inactive).

As for `O=c1oc2ccccc2c2nn(-c3ccccn3)cc12`, the IC50 is 16.7 µM. As for `O=C(COc1ccc(Cl)cc1)NCc1nnc(SCC(=O)NCc2ccc3c(c2)OCO3)o1`, the half-maximal inhibitory concentration (IC50) was 25.8 µM.

For the molecule `O=C(CNC(=O)OCc1ccccc1)Nc1ccc(Br)cc1C(=O)c1ccccc1Cl`, the IC50 is 5.77 µM. Consider `O=c1[nH]c(-c2ccccn2)nc2c1CCN(Cc1cnn(-c3ccccc3)c1)C2`, for which the IC50 was > 50 µM (inactive). As for `Cc1nc(Nc2ncc(C)s2)cc(C2CN(C(=O)Cc3ccccc3)CCO2)n1` (configuration not stated), the IC50 was 33.7 µM.

In the case of `COc1ccccc1Nc1ncc(C(=O)NCCc2ccc(Cl)cc2)c2ccccc12`, the IC50 is 2.59 µM. To `CC(=O)Nc1ccc(-n2cnc(C(=O)NC(C)c3ccccc3)c2)nc1` (configuration not stated) belongs 25.8 µM; to `COc1cccc(CNC(=O)C2=Cc3cccc(OC)c3OC2)c1`, > 50 µM (inactive).

With `O=C(c1ccc2occc2c1)N1CCC(S(=O)(=O)c2ccc(-c3ccco3)cc2)CC1`, the IC50 is > 50 µM (inactive). To `COc1ccc(Nc2nc(C(=O)NCc3ccccc3)cc3occc23)cc1` belongs > 50 µM (inactive); to `CN1CC2CN(C(=O)c3ccc(F)cc3)CCN2Cc2ccccc21` (configuration not stated), > 50 µM (inactive). As for `O=C(Nc1nc2c(s1)COCC2)c1cc(-c2ccco2)[nH]n1`, the IC50 was > 50 µM (inactive). For the molecule `Cc1cc(C)cc(N(CCC(=O)Nc2ccc(N3CCOCC3)cc2)S(=O)(=O)c2ccc(Cl)cc2)c1`, the IC50 was 12.3 µM. Regarding `Cc1cccc(C(=O)Nc2ccccc2Sc2nc3c(c(=O)n(C)c(=O)n3C)n2C)c1`, the IC50 was 32.5 µM. The value for `Cc1cc(Cl)ccc1NC(=O)c1cc(-c2cccnc2)n[nH]1` was > 50 µM (inactive); that for `CCOc1ccc2cc3c(nc2c1)OC(=O)N(Cc1ccc(C)o1)C3` was 1.29 µM.

For orientation: IC50 means the concentration that gives 50% inhibition.

The record behind these values is PubChem BioAssay AID1645865 (Buhrlage Lab, Dana-Farber Cancer Institute and Novartis …, 2021).
